Assay: xn = mol fraction of the nth substance listed
Details: 100 kPa, Liquid; for viscosity: Concentric cylinders viscometry; for mass density: Vibrating tube method

CC(=O)CC(C)C [4-methylpentan-2-one] + CC(C)O
Details	mass density [kg/m3]	viscosity [mPa·s]
293.15 K, x1 = 0.067	786.4	1.722
293.15 K, x1 = 0.1344	787.5	1.361
293.15 K, x1 = 0.2044	788.6	1.141
293.15 K, x1 = 0.3035	790.2	0.962
293.15 K, x1 = 0.3848	791.4	0.856
293.15 K, x1 = 0.5098	793.4	0.737
293.15 K, x1 = 0.5987	794.7	0.691
293.15 K, x1 = 0.6986	796.3	0.651
293.15 K, x1 = 0.8138	798	0.619
293.15 K, x1 = 0.9278	799.8	0.605
293.15 K, x1 = 1	800.8	0.588
298.15 K, x1 = 0.067	782.1	1.516
298.15 K, x1 = 0.1344	783.1	1.217
298.15 K, x1 = 0.2044	784.1	1.029
298.15 K, x1 = 0.3035	785.6	0.877
298.15 K, x1 = 0.3848	786.8	0.784
298.15 K, x1 = 0.5098	788.6	0.684
298.15 K, x1 = 0.5987	790	0.64
298.15 K, x1 = 0.6986	791.5	0.608
298.15 K, x1 = 0.8138	793.2	0.581
298.15 K, x1 = 0.9278	795	0.568
298.15 K, x1 = 1	796.1	0.554
303.15 K, x1 = 0.067	777.7	1.346
303.15 K, x1 = 0.1344	778.6	1.09
303.15 K, x1 = 0.2044	779.6	0.932
303.15 K, x1 = 0.3035	781	0.8
303.15 K, x1 = 0.3848	782.2	0.725
303.15 K, x1 = 0.5098	784	0.638
303.15 K, x1 = 0.5987	785.4	0.601
303.15 K, x1 = 0.6986	786.9	0.571
303.15 K, x1 = 0.8138	788.7	0.547
303.15 K, x1 = 0.9278	790.5	0.534
303.15 K, x1 = 1	791.6	0.523
308.15 K, x1 = 0.067	773.2	1.19
308.15 K, x1 = 0.1344	774.1	0.985
308.15 K, x1 = 0.2044	775	0.849
308.15 K, x1 = 0.3035	776.4	0.736
308.15 K, x1 = 0.3848	777.5	0.669
308.15 K, x1 = 0.5098	779.3	0.594
308.15 K, x1 = 0.5987	780.7	0.562
308.15 K, x1 = 0.6986	782.2	0.536
308.15 K, x1 = 0.8138	784	0.515
308.15 K, x1 = 0.9278	785.7	0.503
308.15 K, x1 = 1	786.9	0.493
313.15 K, x1 = 0.067	768.7	1.059
313.15 K, x1 = 0.1344	769.5	0.884
313.15 K, x1 = 0.2044	770.4	0.769
313.15 K, x1 = 0.3035	771.8	0.675
313.15 K, x1 = 0.3848	772.9	0.619
313.15 K, x1 = 0.5098	774.7	0.555
313.15 K, x1 = 0.5987	776	0.528
313.15 K, x1 = 0.6986	777.5	0.505
313.15 K, x1 = 0.8138	779.3	0.486
313.15 K, x1 = 0.9278	781.1	0.473
313.15 K, x1 = 1	782.3	0.463
318.15 K, x1 = 0.067	764.1	0.949
318.15 K, x1 = 0.1344	764.8	0.799
318.15 K, x1 = 0.2044	765.7	0.695
318.15 K, x1 = 0.3035	767	0.615
318.15 K, x1 = 0.3848	768.1	0.565
318.15 K, x1 = 0.5098	769.9	0.516
318.15 K, x1 = 0.5987	771.2	0.495
318.15 K, x1 = 0.6986	772.7	0.475
318.15 K, x1 = 0.8138	774.6	0.459
318.15 K, x1 = 0.9278	776.4	0.447
318.15 K, x1 = 1	777.6	0.437
323.15 K, x1 = 0.067	759.4	0.845
323.15 K, x1 = 0.1344	760.2	0.718
323.15 K, x1 = 0.2044	761	0.629
323.15 K, x1 = 0.3035	762.3	0.56
323.15 K, x1 = 0.3848	763.4	0.52
323.15 K, x1 = 0.5098	765.2	0.48
323.15 K, x1 = 0.5987	766.5	0.462
323.15 K, x1 = 0.6986	768.1	0.448
323.15 K, x1 = 0.8138	769.9	0.435
323.15 K, x1 = 0.9278	771.8	0.422
323.15 K, x1 = 1	773	0.41

Source: the NIST ThermoML archive (doi:10.1016/j.tca.2014.07.022)
